6 compounds from patent US20240293318A1, “CLEAVABLE LINKER-CONTAINING IONIZABLE LIPIDS AND LIPID CARRIERS FOR THERAPEUTIC COMPOSITIONS” (Flagship Pioneering Innovations VII, LLC, priority 2023, published 2024) can be followed below.

Data set [1] in a line: Apparent pKa of LNPs (TNS assay). The data set is classed as physicochemical. The note with it: LNP, hEPO mRNA, Lipid:Cholesterol:DSPC:PEG-2k 50:38.5:10:1.5, N:P 6. From the text:
(§1) Various lipid nanoparticle compositions comprising a nucleic acid payload are characterized by a variety of methods. For example, dynamic light scattering (DLS) is used to determine particle sizes (Wyatt Dynapro Platereader 111). In addition, instruments such as the Zetasizer Nano ZS (Malvern Instruments Ltd) are used to measure multiple physical properties of a lipid nanoparticle composition, such as particle size, polydispersity index (PDI), and zeta potential. Fluorescence-based assays are used to determine the efficiencies of nucleic acid encapsulation in the lipid nanoparticles. Fluorescence-based assays are used to determine the “apparent pKa” of the lipid nanoparticles. Both fluorescence assays are evaluated on a Varioskanlux plate reader (ThermoScientific).
The apparent pKa of lipid nanoparticle composition is measured using a 6-(p-Toluidino)-2-naphthalenesulfonic acid (TNS) assay. Briefly, lipid nanoparticles (10 uL of approximately 0.5 mg mRNA/mL) and TNS probe (40 uL of 1 mM stock) are added to 750 uL of TNS buffer (25 mM citric acid, 20 mM sodium phosphate, 150 mM NaCl, and 20 mM ammonium acetate), at a pH ranging from 2 to 10. 20 uL of each sample are added to 80 uL of buffer at each pH in a 96-well plate. The plate is incubated for 10 minutes, and the fluorescence signal is measured by means of a spectrofluorometer (Varioskanlux, ThermoScientific) with excitation/emission settings of λex=321 nm, and λem=445 nm. The apparent pKa of the nanoparticle composition is determined by deriving the pH at which 50% of the pH 2 fluorescent signal is present. All datapoints are normalized to the fluorescent signal at pH 2.

Data set [2] in a line: LNP size and polydispersity index by dynamic light scattering (DLS). It is filed as physicochemical. The note with it: hEPO mRNA, Lipid:Cholesterol:DSPC:PEG-2k 50:38.5:10:1.5, N:P 6.
Source text: as §1
After formulation and processing of the lipid nanoparticle compositions, the Z-average size of lipid nanoparticle composition are assayed by dynamic light scattering (DLS) (e.g., using a Wyatt Dynapro Platereader III or Malvern Zetasizer ZS). Briefly, an aliquot of 2 uL of the processed nanoparticle composition mixture (at an RNA concentration of approximately 0.5 mg/mL) is diluted into 50 uL phosphate buffered saline (0.1×PBS) and loaded into a 384 well plate. The sample is then analyzed to determine nanoparticle size.
(§2) LNPs were characterized by dynamic light scattering (DLS) measurement for measuring its hydrodynamic radius and polydispersity index (PDI). Encapsulation efficiency (EE %) and total RNA concentration were quantitated using a fluorescence based Ribogreen assay.

A short description of data set [3]: Zeta potential assay of LNPs. It is filed as physicochemical. As to conditions: LNP, hEPO mRNA, Lipid:Cholesterol:DSPC:PEG-2k 50:38.5:10:1.5, N:P 6.
Source text: as §1
A Zetasizer Nano ZS (Malvern Instruments Ltd) is used to determine the zeta potential of the nanoparticle compositions. Briefly, a 5 uL aliquot of an approximately 0.5 mg mRNA/mL sample is diluted into 800 uL 0.1×PBS. This sample is then transferred to a disposable conducting cuvette and the zeta potential is measured.

A short description of data set [4]: Encapsulation efficiency, fluorescence based Ribogreen assay. It is filed as physicochemical. The note with it: LNP, hEPO mRNA, Lipid:Cholesterol:DSPC:PEG-2k 50:38.5:10:1.5, N:P 6. How it is done: For lipid nanoparticle formulations containing an RNA, a QUANTIT™ RIBOGREEN® RNA assay (Invitrogen Corporation) is used to evaluate the encapsulation of RNA within the lipid nanoparticle formulation.
The samples are diluted to ˜10 ug/ml in TE buffer. In a 96 well plate, 50 ul of the diluted sample is added to 50 uL TE buffer in duplicates and 20 uL of diluted sample is added to 80 uL Triton X buffer (2% triton in TE buffer) in duplicates. The plate is incubated for 10 minutes at room temperature. Next, RIBOGREEN® is diluted 1:200 in TE BUFFER, and 100 uL is added to each sample well. The fluorescence intensity is measured using a fluorescence plate reader (e.g., Varioskanlux, ThermoScientific) at an excitation wavelength of about 480 nm and an emission wavelength of about 520 nm. The encapsulation efficiency can be determined by using the percentage ratio of non-encapsulated RNA (TE sample) over the total RNA (TX sample), then subtracting from 100 to find the percentage of encapsulated RNA amount.
as §2

A further data set has as its system C57BL/6 female mice. As to the kind of experiment: In vivo hEPO expression of hEPO mRNA LNPs, serum ELISA. The note with it: LNP 50:38.5:10:1.5, N:P 6, 0.2 mg/kg hEPO mRNA, tail vein injection, blood serum 6 h post-administration. How it is done: In this example, messenger RNA molecules encoding hEPO proteins were formulated in lipid nanoparticles for delivery in vivo. The lipid nanoparticle (LNP) formulations comprised of a lipid composition of ionizable lipid: helper lipid: cholesterol. DMG-PEG2k at 50:10:38.5:1.5 mol %. The lipid mixture in ethanol was mixed with hEPO mRNA in RNA acidifying buffer (10 mM citrate, pH 4) at an ionizable-lipid-nitrogen-to-RNA-phosphate ratio (N:P) of 6 using a microfluidic device (Precision NanoSystems, Inc.) at a combined flow rate of 10 mL/min (7.5 mL/min for aqueous buffer, RNA and 2.5 mL/min for ethanol, lipid mix). The resulting particles were neutralized by buffer exchange into Dulbecco's phosphate buffer solution via PD-10 desalting column. The neutralized particles were concentrated using 100 kDa AMICON® Ultra centrifugal filters and sterile filtered using 0.2 um syringe filters. Samples were then characterized and diluted as needed (3 replicates).
The in vivo studies were performed in C57BL/6 female mice at 6 to 8 weeks weighing in at approximately 20 g. The LNPs formulated with different ionizable lipids at 0.2 mg/kg of hEPO mRNA were administered by tail vein injection and animals were euthanized at 6 h post-administration for blood serum sample collection. The hEPO levels from the samples were analyzed and cross-compared by enzyme-linked immunoassay (ELISA) according to manufacturer's protocol. The hEPO expression levels for each of the LNPs was compared to a control LNP comprising SM102 (DC Chemicals Cat. No. DC52025). (FIG. 1).

For the compound `CCCCCCCCCCNP(=O)(OCC)OCCCCCN(CCO)CCCCCCCC(=O)OC(CCCCCCCC)CCCCCCCC` (stereo not drawn) [Lipid 15], the pKa in data set [1] is 7.0. In data set [2], this compound returned a PDI of 0.165 and a Size of 83.1 nm. This compound also had a Zeta in data set [3] of 0.2 mV. In data set [4], the EE was found to be 94.8%. The hEPO with C57BL/6 female mice amounted to 123.69 ng/mL.

On to `CCCCCCCCCCCOC(=O)CCCCCN(CCO)CCCCCCCC(=O)OC(CCCCCCCC)CCCCCCCC` [SM-102, heptadecan-9-yl 8-((2-hydroxyethyl)(6-oxo-6-(undecyloxy)hexyl)amino)octanoate, reference compound], for which, in data set [1], the pKa amounted to 7. In data set [2], this compound returned a PDI of 0.106 and a Size of 78.70 nm. The Zeta in data set [3] was −3.1 mV. In addition, in data set [4], the EE is on record as 96.7%. In the data set with C57BL/6 female mice, this compound came in with a hEPO of 2457.05 ng/mL.

Consider `CCCCCCCCCOP(=O)(NCCCCCN(CCO)CCCCCCCC(=O)OC(CCCCCCCC)CCCCCCCC)OCC` (stereo not drawn) [Lipid 11], for which the pKa in data set [1] is recorded as 7.3. Moreover, in data set [2], the PDI worked out at 0.08 and the Size is listed as 94.4 nm. The same compound registered a Zeta in data set [3] of 2.6 mV. This compound had an EE in data set [4] of 99.7%. The hEPO with C57BL/6 female mice stood at 63.81 ng/mL.

For `CCCCCCCCCNP(=O)(OCC)OCCCCCN(CCO)CCCCCCCC(=O)OC(CCCCCCCC)CCCCCCCC` (stereo not drawn) [Lipid 16], the pKa in data set [1] was 7.0. In data set [2], this compound returned a PDI of 0.116 and a Size of 91.6 nm. In addition, the Zeta in data set [3] is −0.4 mV. The EE in data set [4] is given as 88.1%. Moreover, in the data set on C57BL/6 female mice, the hEPO amounted to 79.22 ng/mL.

Regarding `CCCCCCCCCCCCCOC(=O)CCN(CCO)CCCCCCCC(=O)OC(CCCCCCCC)CCCCCCCC` [Lipid 2], in data set [1], the pKa is 5.1. In data set [2], this compound yielded a PDI of 0.399 and a Size of 68.8 nm. The Zeta in data set [3] stood at 0.1 mV. In data set [4], the EE was 97.9%. In addition, the hEPO with C57BL/6 female mice came to 0.00 ng/mL.

Turning to `CCCCCCCCCCCOC(=O)CCCCCN(CCO)CCCCCCCOP(=O)(NCCCCCCCC)OCCCCCCCC` (stereo not drawn) [Lipid 8], the pKa in data set [1] is recorded as 7.0. Moreover, in data set [2], the PDI amounted to 0.302 and the Size stood at 134.7 nm. Further, the Zeta in data set [3] was determined as 0.1 mV. Also, in data set [4], the EE is listed as 94.2%. In the data set with C57BL/6 female mice, this compound had a hEPO of 93.09 ng/mL.

The term pKa denotes the pH at which an ionisable group is half protonated.
